ChEMBL document CHEMBL4311972, “Discovery of a benzothiophene-flavonol halting miltefosine and antimonial drug resistance in Leishmania parasites through the application of medicinal chemistry, screening and genomics” (Eur J Med Chem, 2019)

Assays:
[1] = Cytotoxicity against human THP1 cells by MTT assay; type: cell-based, THP-1
[2] = Cytotoxicity against human A549 cells assessed as cell growth at […] incubated for 48 hrs by Celltiter-Glo luminescence assay relative to control; type: cell-based; parameters: dose or concentration left out as unconfirmed; conditions: read-out: Activity
[3] = biological target: hERG (KCNH2) (Homo sapiens, UniProt Q12809); assay: Inhibition of human ERG at 10 uM incubated for 2 hrs by fluorescence polarization assay relative to control
Sequence of hERG (KCNH2) (Q12809 whole entry): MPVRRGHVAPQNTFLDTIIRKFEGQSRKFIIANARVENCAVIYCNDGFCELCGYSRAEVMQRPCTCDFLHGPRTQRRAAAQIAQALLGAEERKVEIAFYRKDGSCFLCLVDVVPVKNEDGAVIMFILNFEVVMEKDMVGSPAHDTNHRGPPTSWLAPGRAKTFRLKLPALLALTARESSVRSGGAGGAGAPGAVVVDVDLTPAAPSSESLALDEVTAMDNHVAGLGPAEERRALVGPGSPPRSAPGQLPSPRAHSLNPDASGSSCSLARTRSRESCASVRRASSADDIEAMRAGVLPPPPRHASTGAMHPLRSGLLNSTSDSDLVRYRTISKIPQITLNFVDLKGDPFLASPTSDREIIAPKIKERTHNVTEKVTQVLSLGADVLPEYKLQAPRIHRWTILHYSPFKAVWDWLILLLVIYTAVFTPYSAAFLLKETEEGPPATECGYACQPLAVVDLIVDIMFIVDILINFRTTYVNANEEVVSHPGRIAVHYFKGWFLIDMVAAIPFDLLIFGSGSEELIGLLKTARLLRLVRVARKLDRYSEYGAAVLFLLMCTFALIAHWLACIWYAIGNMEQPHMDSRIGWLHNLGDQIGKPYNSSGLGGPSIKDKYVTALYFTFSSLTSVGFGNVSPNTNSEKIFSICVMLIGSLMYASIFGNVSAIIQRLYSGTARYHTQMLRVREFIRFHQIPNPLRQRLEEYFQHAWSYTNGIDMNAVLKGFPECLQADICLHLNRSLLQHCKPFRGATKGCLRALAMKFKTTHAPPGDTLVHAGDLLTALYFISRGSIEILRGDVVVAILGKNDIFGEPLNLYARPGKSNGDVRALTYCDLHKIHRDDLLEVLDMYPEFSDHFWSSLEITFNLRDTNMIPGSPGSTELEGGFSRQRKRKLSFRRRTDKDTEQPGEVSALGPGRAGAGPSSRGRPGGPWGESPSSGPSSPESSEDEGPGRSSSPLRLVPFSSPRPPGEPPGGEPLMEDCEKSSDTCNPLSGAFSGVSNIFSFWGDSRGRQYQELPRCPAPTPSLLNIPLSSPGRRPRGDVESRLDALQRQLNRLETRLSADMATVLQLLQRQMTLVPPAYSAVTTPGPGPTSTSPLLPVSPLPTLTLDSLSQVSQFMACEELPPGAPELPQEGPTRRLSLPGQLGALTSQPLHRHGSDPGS

[4] = system: 786-0; assay: Mitochondrial toxicity in human 786-0 cells at 10 uM incubated with compound for 6 hrs followed by incubation with MitoTracker Red chloromethyl-X-rosamine dye for 45 mins by imaging analysis; type: cell-based; conditions: 786-0, 6 h
[5] = biological target: CYP2C19 (Homo sapiens, UniProt P33261); assay: Inhibition of human microsomal CYP2C19 expressed in baculovirus infected insect cells at 10 uM using luciferin-H EGE as substrate preincubated with enzyme/substrate mixture for 30 mins followed by further incubation with NADPH for 30 mins by CYP450 luciferase Glo assay relative to control; type: ADME; conditions: probe luciferin-H EGE
Sequence of CYP2C19 (P33261 whole entry): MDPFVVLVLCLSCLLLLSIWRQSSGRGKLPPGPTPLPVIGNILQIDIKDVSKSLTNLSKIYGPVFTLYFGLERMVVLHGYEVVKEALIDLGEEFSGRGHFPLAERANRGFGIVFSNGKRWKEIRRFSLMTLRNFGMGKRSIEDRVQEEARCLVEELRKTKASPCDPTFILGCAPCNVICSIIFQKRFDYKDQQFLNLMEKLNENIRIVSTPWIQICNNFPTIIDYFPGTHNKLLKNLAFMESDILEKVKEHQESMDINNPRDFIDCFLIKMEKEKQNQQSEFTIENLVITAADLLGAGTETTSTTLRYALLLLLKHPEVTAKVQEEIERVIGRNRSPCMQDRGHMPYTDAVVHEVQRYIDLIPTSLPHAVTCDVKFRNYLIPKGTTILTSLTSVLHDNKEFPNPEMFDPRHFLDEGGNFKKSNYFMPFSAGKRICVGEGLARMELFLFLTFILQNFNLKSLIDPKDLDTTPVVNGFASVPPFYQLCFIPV

[6] = biological target: T1, CYP1A2 (Homo sapiens, UniProt P05177); assay: Inhibition of human microsomal CYP1A2 expressed in baculovirus infected insect cells at 10 uM using luciferin-1A2 as substrate preincubated with enzyme/substrate mixture for 30 mins followed by further incubation with NADPH for 30 mins by CYP450 luciferase Glo assay relative to control; type: ADME; conditions: probe luciferin-1A2
T1 sequence (P05177 whole entry): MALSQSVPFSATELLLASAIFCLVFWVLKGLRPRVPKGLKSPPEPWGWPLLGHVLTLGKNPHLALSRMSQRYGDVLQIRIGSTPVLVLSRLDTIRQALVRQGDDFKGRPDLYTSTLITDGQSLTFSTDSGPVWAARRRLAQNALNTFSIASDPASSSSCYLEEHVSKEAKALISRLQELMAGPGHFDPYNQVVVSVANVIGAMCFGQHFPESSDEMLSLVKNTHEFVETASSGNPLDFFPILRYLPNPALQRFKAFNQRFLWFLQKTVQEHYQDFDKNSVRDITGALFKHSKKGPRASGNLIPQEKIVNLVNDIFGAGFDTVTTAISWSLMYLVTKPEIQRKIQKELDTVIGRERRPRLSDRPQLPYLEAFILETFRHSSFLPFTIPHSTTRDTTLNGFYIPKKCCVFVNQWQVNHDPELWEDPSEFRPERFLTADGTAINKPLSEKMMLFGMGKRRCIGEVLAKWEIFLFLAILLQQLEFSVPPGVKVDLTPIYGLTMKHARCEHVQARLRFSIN

[7] = biological target: CYP2C9 (Homo sapiens, UniProt P11712); assay: Inhibition of human microsomal CYP2C9 expressed in baculovirus infected insect cells at 10 uM using luciferin-H as substrate preincubated with enzyme/substrate mixture for 30 mins followed by further incubation with NADPH for 30 mins by CYP450 luciferase Glo assay relative to control; type: ADME; conditions: probe luciferin-H
Sequence of CYP2C9 (P11712 whole entry): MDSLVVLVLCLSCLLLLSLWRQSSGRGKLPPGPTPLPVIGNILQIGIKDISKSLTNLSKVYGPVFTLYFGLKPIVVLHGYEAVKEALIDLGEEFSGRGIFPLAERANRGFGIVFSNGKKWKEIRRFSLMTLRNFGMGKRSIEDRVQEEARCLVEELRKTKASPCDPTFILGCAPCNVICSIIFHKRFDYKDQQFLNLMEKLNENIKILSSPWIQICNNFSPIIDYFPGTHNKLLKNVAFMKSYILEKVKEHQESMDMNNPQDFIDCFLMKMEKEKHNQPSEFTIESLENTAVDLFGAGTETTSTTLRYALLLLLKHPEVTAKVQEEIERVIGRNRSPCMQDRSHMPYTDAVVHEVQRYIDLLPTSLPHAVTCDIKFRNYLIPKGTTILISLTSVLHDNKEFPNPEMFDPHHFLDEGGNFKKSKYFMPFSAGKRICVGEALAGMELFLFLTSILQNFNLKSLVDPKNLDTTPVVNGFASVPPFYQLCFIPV

[8] = biological target: CYP2D6 (Homo sapiens, UniProt P10635); assay: Inhibition of human microsomal CYP2D6 expressed in baculovirus infected insect cells at 10 uM using luciferin-ME as substrate preincubated with enzyme/substrate mixture for 30 mins followed by further incubation with NADPH for 30 mins by CYP450 luciferase Glo assay relative to control; type: ADME; conditions: probe luciferin-ME
Sequence of CYP2D6 (P10635 whole entry): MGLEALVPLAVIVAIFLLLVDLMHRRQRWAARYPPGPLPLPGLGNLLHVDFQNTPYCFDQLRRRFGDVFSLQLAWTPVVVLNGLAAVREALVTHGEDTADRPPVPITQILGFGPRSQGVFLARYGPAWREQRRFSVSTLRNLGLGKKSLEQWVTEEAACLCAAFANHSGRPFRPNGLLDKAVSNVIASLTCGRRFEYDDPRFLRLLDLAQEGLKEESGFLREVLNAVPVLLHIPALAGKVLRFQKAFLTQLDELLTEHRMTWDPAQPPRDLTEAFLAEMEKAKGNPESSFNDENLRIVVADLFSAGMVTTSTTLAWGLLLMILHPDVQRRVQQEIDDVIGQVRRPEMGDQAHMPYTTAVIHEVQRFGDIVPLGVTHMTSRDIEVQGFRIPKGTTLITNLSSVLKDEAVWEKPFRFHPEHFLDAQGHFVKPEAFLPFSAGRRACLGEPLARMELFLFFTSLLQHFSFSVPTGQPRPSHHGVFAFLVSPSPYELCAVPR

[9] = system: Trypanosoma brucei; assay: Antitrypanosomal activity against Trypanosoma brucei bloodstream form assessed as parasite growth inhibition incubated for 72 hrs by resazurin dye based assay; type: functional, organism-based
[10] = biological target: CYP3A4 (Homo sapiens, UniProt P08684); assay: Inhibition of human microsomal CYP3A4 expressed in baculovirus infected insect cells at 10 uM using luciferin-IPA as substrate preincubated with enzyme/substrate mixture for 30 mins followed by further incubation with NADPH for 30 mins by CYP450 luciferase Glo assay relative to control; type: ADME; conditions: probe luciferin-IPA
Sequence of CYP3A4 (P08684 whole entry): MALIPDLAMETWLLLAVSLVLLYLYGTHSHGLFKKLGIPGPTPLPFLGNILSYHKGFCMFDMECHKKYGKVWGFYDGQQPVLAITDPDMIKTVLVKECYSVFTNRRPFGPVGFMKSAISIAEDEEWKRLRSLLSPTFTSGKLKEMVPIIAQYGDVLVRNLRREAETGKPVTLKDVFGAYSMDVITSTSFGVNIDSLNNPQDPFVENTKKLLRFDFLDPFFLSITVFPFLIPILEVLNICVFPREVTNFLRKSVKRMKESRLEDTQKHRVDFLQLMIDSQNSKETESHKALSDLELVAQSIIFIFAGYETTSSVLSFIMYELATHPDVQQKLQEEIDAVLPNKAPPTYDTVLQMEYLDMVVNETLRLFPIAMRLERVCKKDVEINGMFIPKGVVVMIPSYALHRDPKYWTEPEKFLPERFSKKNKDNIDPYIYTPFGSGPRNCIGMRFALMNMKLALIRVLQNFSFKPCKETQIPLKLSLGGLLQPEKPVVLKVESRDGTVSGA

[11] = system: Leishmania infantum; assay: Antileishmanial activity against luciferase expressing intracellular amastigote stage of Leishmania infantum infected in human THP1 cells assessed as parasite growth inhibition measured after 48 to 72 hrs by steady-glo luciferase assay; type: functional, organism-based
[12] = Trypanosoma brucei, 72 h, read-out: EC50

Row | Structure (SMILES) | inhibition at 0.5 h, 10 µM [5] | inhibition at 0.5 h, 10 µM [6] | inhibition at 0.5 h, 10 µM [7] | inhibition at 0.5 h, 10 µM [8] | EC50 [9] | inhibition at 0.5 h, 10 µM [10] | EC50 [9, 12] | CC50 [1] | viability at 48 h [2] | inhibition at 2 h, 10 µM [3] | Activity [4] | EC50 [11]
1 | Cc1ccsc1-c1oc2cc(O)ccc2c(=O)c1O | 57.9% | 108% | 43.8% | 24.1% | Not Active | 73.8% | – | 12.5 to 20 µM | 83.4% | -1.79% | -3.38% | –
2 | CCOc1c(-c2csc3ccccc23)oc2ccc(OC)cc2c1=O | 54.5% | 92.4% | 14.1% | 50.2% | Not Active | 46.9% | – | 25 to 50 µM | 120% | 11.8% | -27.16% | Not Active
3 | COc1ccc2oc(-c3csc4ccccc34)c(OC(=O)N(C)C)c(=O)c2c1 | 26.3% | 61.1% | -6.48% | 20.3% | Not Active | 47.4% | – | 12.5 to 25 µM | 104% | -17.9% | -42.09% | Not Active
4 | O=c1c(O)c(-c2csc3ccccc23)oc2ccccc12 | 31.3% | 97.7% | 28.9% | 6.45% | – | -1.84% | 2.6 µM | < 25 µM | 50.3% | -22.7% | -22.23% | Not Active
5 | COc1ccc2oc(-c3csc4ccccc34)c(OC(=O)C(C)(C)C)c(=O)c2c1 | 31.8% | 51.6% | 33.6% | 11.8% | – | 50.1% | 3.7 µM | 12.5 to 25 µM | 133% | -23.8% | -47.48% | Not Active
6 | COc1ccc2c(=O)c(O)c(-c3csc4ccccc34)oc2c1 | 62.3% | 90% | 28.1% | 20.3% | – | 5.81% | 3.1 µM | 25 to 50 µM | 53.9% | -4.35% | -22.67% | Not Active
7 | COc1ccc2oc(-c3ccco3)c(O)c(=O)c2c1 | 54.3% | 104% | 71.3% | 50.8% | Not Active | 14.1% | – | 50 to 100 µM | 106% | -1.31% | -0.99% | –
8 | COc1ccc2oc(-c3ccc4ncccc4c3)c(O)c(=O)c2c1 | -8.24% | 27.4% | -3.36% | -15.1% | Not Active | -3.86% | – | > 100 µM | 101% | 16.1% | -7.05% | –
9 | O=c1c(O)c(-c2csc3ccccc23)oc2cc(F)ccc12 | 24.2% | 80.6% | 26.5% | 23% | – | 9.54% | – | 25 to 50 µM | 124% | 11.6% | -22.29% | Not Active

Further lines, with some results ahead:

Row | inhibition at 0.5 h, 10 µM [5] | inhibition at 0.5 h, 10 µM [6] | inhibition at 0.5 h, 10 µM [7] | inhibition at 0.5 h, 10 µM [8] | EC50 [9] | inhibition at 0.5 h, 10 µM [10] | EC50 [9, 12] | Structure (SMILES) | CC50 [1] | viability at 48 h [2] | inhibition at 2 h, 10 µM [3] | Activity [4] | EC50 [11]
10 | 31.7% | 57.2% | 19.6% | 66.5% | Not Active | 48.2% | – | CCCOc1c(-c2csc3ccccc23)oc2ccc(OC)cc2c1=O | 12.5 to 25 µM | 60.1% | 33.9% | 95.63% | Not Active
11 | 68.7% | 103% | 46.3% | 23.4% | Not Active | -0.65% | – | COc1ccc2c(=O)c(O)c(-c3ccco3)oc2c1 | > 100 µM | 102% | -3.37% | -1.6% | –
12 | 65.4% | 93.5% | 83.7% | 28.4% | Not Active | 14.1% | – | O=c1c(O)c(-c2ccco2)oc2cc(O)ccc12 | > 100 µM | 108% | 18.7% | -1.18% | –
13 | 27.3% | 106% | 71.8% | 10.9% | Not Active | 6.11% | – | Cc1csc(-c2oc3cccc(O)c3c(=O)c2O)c1 | > 100 µM | 56.8% | 34.2% | 5.8% | –
14 | -1.53% | 89.2% | -0.02% | 3.57% | – | 22% | – | COc1ccc2oc(-c3cn(C)c4ccccc34)c(O)c(=O)c2c1 | – | 18.6% | 12.7% | -1.87% | –
15 | 73.2% | 96.7% | 47.6% | 36.2% | Not Active | 7.49% | – | O=c1c(O)c(-c2ccco2)oc2ccc(O)cc12 | 20 to 50 µM | 104% | 6.43% | 4.3% | –
